According to the supplement of paper PMC7840683:
Structures can show the parent of a compound that is named as a salt. ± gives the standard deviation of the averaged measurements.

Test system: HepaRG
Test: LDH release cytotoxicity, % of total lysis control; higher = more cytotoxic
Conditions: 48 h
How it was run: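 Eight-point half-log series of test chemicals, the highest at 100 µM, were given in duplicate for 48 h to single-lot HepaRG cells on collagen I-coated 96-well plates in serum-free induction medium with 0.5% DMSO. A Tecan Safire read resorufin fluorescence from CytoTox-ONE as a measure of LDH in 50 µL spent medium, with 0.1% Triton X in total lysis wells. Percent cytotoxicity was normalized to on-plate vehicle and total lysis controls and averaged over the duplicates.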

CCC(C)N=O (configuration not stated) [2-Butanone oxime]
Conditions	LDH release cytotoxicity [%]
0.02261 µM	0.0542 ± 0.017
0.0715 µM	-0.457 ± 0.27
0.2261029 µM	-1.06 ± 1
0.715 µM	-1.57 ± 0.89
2.26103 µM	-1.04 ± 0.2
7.15 µM	-1.22 ± 0.13
22.6103 µM	-1.08 ± 0.69
71.5 µM	0.052 ± 1

c1ccc2ncccc2c1 [Quinoline]
Conditions	LDH release cytotoxicity [%]
0.03162 µM	-1.44 ± 0.36
0.1 µM	0.113 ± 1.4
0.3162278 µM	-0.853 ± 0.57
1 µM	-1.155 ± 0.0096
3.16228 µM	0.144 ± 0.76
10 µM	-1.28 ± 1.3
31.6228 µM	-0.47 ± 0.21
100 µM	2.26 ± 1.6

OC1CCCCC1 [Cyclohexanol]
Conditions	LDH release cytotoxicity [%]
0.03162 µM	-1.14 ± 0.82
0.1 µM	-1.56 ± 0.45
0.3162278 µM	-2.24 ± 0.84
1 µM	-1.92 ± 0.44
3.16228 µM	-1.56 ± 0.67
10 µM	-0.208 ± 0.47
31.6228 µM	-0.773 ± 0.11
100 µM	-0.073 ± 0.72

CCc1cccc(CC)c1N(COC)C(=O)CCl [Alachlor]
Conditions	LDH release cytotoxicity [%]
0.031623 µM	-1.16 ± 0.26
0.1 µM	-1.83 ± 1.3
0.316228 µM	-2.33 ± 2.1
1 µM	-2.4 ± 0.71
3.16228 µM	-2.62 ± 0.18
10 µM	-2.23 ± 0.35
31.6228 µM	-2.51 ± 0.88
100 µM	-0.425 ± 0.47

O=C1OC(c2ccc(O)cc2)(c2ccc(O)cc2)c2ccccc21 [Phenolphthalein]
Conditions	LDH release cytotoxicity [%]
0.03162 µM	-0.731 ± 0.29
0.1 µM	-1.59 ± 0.42
0.3162278 µM	-0.412 ± 1
1 µM	-1.68 ± 1
3.16228 µM	-0.391 ± 0.89
10 µM	0.41 ± 0.52
31.6228 µM	0.57 ± 0.34
100 µM	10.5 ± 2

COC(=O)N(C(=O)N1COC2(C(=O)OC)Cc3cc(Cl)ccc3C2=N1)c1ccc(OC(F)(F)F)cc1 (configuration not stated) [Indoxacarb]
Conditions	LDH release cytotoxicity [%]
0.0253 µM	-0.813 ± 0.062
0.08 µM	0.513 ± 0.93
0.252982 µM	-1.47 ± 0.66
0.8 µM	-0.957 ± 0.72
2.52982 µM	-0.16 ± 1.7
8 µM	-0.511 ± 0.2
25.2982 µM	0.453 ± 1.4
80 µM	14.2 ± 2.2

CN(C)C(=O)Nc1ccc(Cl)cc1 [Monuron]
Conditions	LDH release cytotoxicity [%]
0.031623 µM	-1.01 ± 1.8
0.1 µM	-1.82 ± 0.043
0.316228 µM	-2.23 ± 0.4
1 µM	-2.41 ± 0.67
3.16228 µM	-2.49 ± 0.18
10 µM	-1.39 ± 0.62
31.6228 µM	-0.555 ± 1.5
100 µM	0.589 ± 0.75

OC1CCC(C2CCCCC2)CC1 (configuration not stated) [4-Cyclohexylcyclohexanol]
Conditions	LDH release cytotoxicity [%]
0.03162 µM	-1.67 ± 0.32
0.1 µM	-1.27 ± 1.5
0.3162278 µM	-1.62 ± 1.1
1 µM	-2.39 ± 0.036
3.16228 µM	-2.08 ± 1.7
10 µM	-1.58 ± 0.49
31.6228 µM	-1.22 ± 0.35
100 µM	0.00977 ± 0.63

CCN(Cc1cccc(S(=O)(=O)O)c1)c1ccc(C(=C2C=CC(=[N+](CC)Cc3cccc(S(=O)(=O)O)c3)C=C2)c2ccccc2S(=O)(=O)O)cc1 [FD&C Blue No. 1]
Conditions	LDH release cytotoxicity [%]
0.0204 µM	-1.63 ± 0.15
0.0645 µM	-0.475 ± 0.088
0.203967 µM	-1.54 ± 0.48
0.645 µM	-1.35 ± 0.38
2.03967 µM	-1.04 ± 0.34
6.45 µM	-0.732 ± 0.83
20.3967 µM	-1.07 ± 0.46
64.5 µM	-1.76 ± 0.13

CC(C)N(C(=O)SCC(Cl)=C(Cl)Cl)C(C)C [Tri-allate]
Conditions	LDH release cytotoxicity [%]
0.03162 µM	-0.887 ± 0.62
0.1 µM	-0.771 ± 0.47
0.3162278 µM	-0.223 ± 0.71
1 µM	-0.601 ± 0.42
3.16228 µM	-0.0707 ± 0.93
10 µM	-0.765 ± 0.52
31.6228 µM	1.13 ± 1.9
100 µM	1.48 ± 0.1

CN=C1C=NN(c2cccc(C(F)(F)F)c2)C(=O)C1Cl (configuration not stated) [Norflurazon]
Conditions	LDH release cytotoxicity [%]
0.03162 µM	-0.275 ± 1.1
0.1 µM	-1.08 ± 0.48
0.3162278 µM	-0.0751 ± 2
1 µM	0.0859 ± 2.5
3.16228 µM	-1.2 ± 0.27
10 µM	-0.411 ± 0.49
31.6228 µM	0.0481 ± 1.5
100 µM	1.81 ± 1.8

CCC(C)c1cc([N+](=O)[O-])cc([N+](=O)[O-])c1O (configuration not stated) [Dinoseb]
Conditions	LDH release cytotoxicity [%]
0.03162 µM	-1.28 ± 0.054
0.1 µM	0.378 ± 0.78
0.3162278 µM	-1.3 ± 0.076
1 µM	-1.58 ± 0.37
3.16228 µM	-0.982 ± 1
10 µM	-0.113 ± 0.038
31.6228 µM	0.81 ± 0.59
100 µM	2.87 ± 1.4

CC(C)c1ccc(C(=O)N=C(N)N)cc1S(C)(=O)=O [Cariporide mesylate]
Conditions	LDH release cytotoxicity [%]
0.02356 µM	-0.0357 ± 0.59
0.0745 µM	-1.69 ± 0.56
0.23559 µM	-0.975 ± 1.1
0.745 µM	-1.41 ± 0.45
2.3559 µM	-0.944 ± 0.16
7.45 µM	-0.838 ± 0.12
23.559 µM	-1.46 ± 0.13
74.5 µM	-0.256 ± 0.4

O=C(OCCCCCCOC(=O)c1ccccc1)c1ccccc1 [Hexane-1,6-diyl dibenzoate]
Conditions	LDH release cytotoxicity [%]
0.03162 µM	-2.1 ± 1
0.1 µM	-1.87 ± 0.28
0.3162278 µM	-2.22 ± 0.23
1 µM	-2.77 ± 1.1
3.16228 µM	-2.28 ± 0.66
10 µM	-1.66 ± 0.29
31.6228 µM	-1.98 ± 0.81
100 µM	-0.594 ± 0.66

C#CC1(O)CCC2C3CCc4cc(O)ccc4C3CCC21C (stereo not drawn) [17alpha-Ethinylestradiol]
Conditions	LDH release cytotoxicity [%]
0.03162 µM	-0.935 ± 0.49
0.1 µM	-0.618 ± 0.51
0.3162278 µM	-0.346 ± 0.13
1 µM	-0.588 ± 0.39
3.16228 µM	-0.768 ± 0.53
10 µM	-0.554 ± 1.1
31.6228 µM	0.171 ± 0.51
100 µM	1.412 ± 0.013

O=C(OC[C@H]1O[C@@H](OC(=O)c2cc(O)c(O)c(OC(=O)c3cc(O)c(O)c(O)c3)c2)[C@H](OC(=O)c2cc(O)c(O)c(OC(=O)c3cc(O)c(O)c(O)c3)c2)[C@@H](OC(=O)c2cc(O)c(O)c(OC(=O)c3cc(O)c(O)c(O)c3)c2)[C@@H]1OC(=O)c1cc(O)c(O)c(OC(=O)c2cc(O)c(O)c(O)c2)c1)c1cc(O)c(O)c(OC(=O)c2cc(O)c(O)c(O)c2)c1 [Tannic acid]
Conditions	LDH release cytotoxicity [%]
0.0096449 µM	-1.06 ± 2.3
0.0305 µM	-1.19 ± 0.16
0.0964495 µM	-2.39 ± 0.56
0.305 µM	-2.34 ± 0.6
0.964495 µM	-3.92 ± 0.22
3.05 µM	-4.5 ± 0.39
9.64495 µM	-0.0405 ± 0.038
30.5 µM	5.317 ± 0.018

CN(C)c1ccc(N=NS(=O)(=O)O)cc1 [Fenaminosulf]
Conditions	LDH release cytotoxicity [%]
0.03162 µM	-1.38 ± 0.17
0.1 µM	-1.18 ± 1.2
0.3162278 µM	-1.97 ± 0.02
1 µM	-2.42 ± 0.11
3.16228 µM	-2.64 ± 0.11
10 µM	-3.4 ± 0.27
31.6228 µM	-3.39 ± 0.36
100 µM	-3.64 ± 0.36

CC(C)C(C(=O)OC(C#N)c1cccc(Oc2ccccc2)c1)c1ccc(Cl)cc1 (configuration not stated) [Esfenvalerate]
Conditions	LDH release cytotoxicity [%]
0.03162 µM	-0.0612 ± 0.44
0.1 µM	-1.61 ± 0.76
0.3162278 µM	-0.46 ± 0.66
1 µM	-0.419 ± 0.79
3.16228 µM	-1.05 ± 0.74
10 µM	0.166 ± 0.61
31.6228 µM	-0.322 ± 0.82
100 µM	-0.488 ± 0.23

CC(=O)C(C)=CC1C(C)=CCCC1(C)C (stereo not drawn) [alpha-Isomethylionone]
Conditions	LDH release cytotoxicity [%]
0.03162 µM	-0.906 ± 0.49
0.1 µM	-1.92 ± 0.022
0.3162278 µM	-1.73 ± 0.24
1 µM	-1.69 ± 0.3
3.16228 µM	-1.11 ± 0.41
10 µM	-1.8 ± 0.12
31.6228 µM	-0.46 ± 0.73
100 µM	0.422 ± 0.12
